In US5336485A, “Method for protecting animals against tacrine induced cytotoxic injury using sterol compounds” (priority 1993, dated 1994):
Where a name gives a salt, the structure may show the parent alone.

Experiments:
[1] = tested on: rat hepatocytes; test: Cellular alpha-tocopherol and tocopherol ester content of rat hepatocytes; conditions: for Hepatocyte Concentration Alpha-T: EMS 3 h
Procedure: (§1) At each time-point, rapid separation of viable from non-viable hepatocytes and medium was accomplished by the dibutyl phthalate centrifugation method. Cell viability was monitored hourly by measuring LDH leakage with a Cobas Analyzer and intracellular [K^+ ]with a flame photometer. LDH was routinely measured in the medium while intracellular K^+ was measured in the 10% perchloric acid lysate of viable cells. Lipid peroxidation was determined by measuring TBA reactants in the medium. […] The samples were diluted with 0.3 ml 1% ascorbate in 0.1 M SDS, 0.4 ml ethanol, sonicated and extracted once with 0.8 ml hexane. Next, the hexane extract was evaporated to dryness with N2, the residue dissolved in 2.5% ascorbate in methanol (1 ml) and analyzed (100 μl) by high-performance liquid chromatograph (HPLC). […] The mobile phase, 95% MeOH was run isocratically and the HPLC retention times for delta and alpha-tocopherol were approximately eleven and sixteen minutes, respectively. […] Following the addition of 0.2 ml 4 M HC1, the neutralized KOH-MeOH extracted with 0.8 ml hexane. […] A standard curve for each tocopherol congener was run with every assay. […] Only viable cells were monitored in the laboratory procedures.
The hepatocytes were subsequently exposed to 50mM EMS for three hours.

[2] = tested on: rat hepatocytes; test: EMS-induced cytotoxicity (LDH leakage/cell death) in rat hepatocyte suspensions; conditions: for Protection From Toxic Injury: EMS 3 h
Procedure: To determine if alpha-TS is a cytoprotective agent under physiological conditions, liver cells were incubated with Waymouth's medium containing approximately 1 mM extracellular Ca^2+ in the presence and absence of alpha-TS.
as §1
To determine the relative cytoprotective potency of various tocopherol derivatives, the effect of varying doses of a tocopherol analog on the protection against EMS-induced toxicity was examined in vitro on rat hepatocyte suspensions. Specifically, the following ionizable tocopherol congeners were tested: alpha-TS, alpha tocopheryl glutarate (alpha-TG), and alpha tocopheryl phosphate (alpha-TP). […] 0.1 nmoles is the lower detection limit.
In vitro experiments were conducted with a variety of different tocopherol and succinate analogs to determine which were protective against EMS induced toxicity. After five hours of incubation with 50 mM EMS and 25μM of a tocopherol or succinate analog, cytoprotection was determined by comparing the percentage of LDH leakage from control hepatocytes (vehicle only, assumed 100% protection) with the EMS only treated cells (assumed 0% protection).
An in vitro experiment with rat hepatocyte suspensions was performed to determine the effect of esterase inhibitors on alpha-TS.
(§2) Rat hepatocyte suspensions were subjected to 50 mM EMS and the percentage of cell death, the percentage of intracellular K^+ (a metabolic parameter as discussed above), the depletion of ATP and the effect on lipid peroxidation were monitored.

[3] = tested on: male Sprague-Dawley rats; test: CCl4 induced lethality in rats; format: in vivo, rat
Procedure: The in vivo effect of alpha-TS was tested by administering a lethal oral dose of carbon tetrachloride (CC14) to male Sprague-Dawley rats.
In the experiment described in Table 3, a single dose of alpha-TS dissolved in peanut oil:ethanol (3:2) was given to male Sprague-Dawley rats. The dose was given 24 hours prior to an orally administered CCl4 challenge dissolved in peanut oil. Two to nine animals were tested per treatment. The control group comprised rats pretreated with the vehicle only. Survival was monitored for at least 7 days after the toxic insult.
In vivo experiments were performed to determine if the time the ionizable tocopherol analog (alpha-TS) is administered affects the cytoprotective functions. Male Sprague-Dawley rats were given a 100 mg/kg intraperitoneal dose of a tocopherol or succinate analog and were given a lethal dose of CCl4 (2.9g/kg by oral gavage). Table 7 contrasts the times of administration of the tocopherol or succinate analog and the times of administration of the lethal dose of CCl4 with the survival of the rats in the study (3to 6 rats per protective treatment).
Several tocopherol and succinate analogs were tested for CCl4 induced lethality. A single dose of the tocopherol or succinate analog was administered twenty four hours prior to orally administering 2.9 g CCl4 /kg body weight. Three to six animals were analyzed per treatment. The rats were monitored for seven days. […]

[4] = tested on: cultured rat hepatocytes; test: EMS-induced toxicity and lipid peroxidation in primary cultures of rat hepatocytes; format: cell-based; conditions: for Cell Death / Lipid Peroxidation: 50 mM EMS, 6 hrs
Procedure: To confirm the cytoprotective properties of alpha-TP under physiological conditions in vitro tests using primary cultures of adult rat hepatocytes were conducted (another in vitro model system). Unlike the hepatocyte suspensions used for the in vitro modeling discussed above, cultured hepatocytes retain their in vivo cuboidal shape as a result of attachment to a collagen matrix, and their lifespan in vitro is 5 to 7 days, instead of 8-12 hours (as with suspensions).

[5] = tested on: rat hepatocytes; test: ATP content of rat hepatocyte suspensions; format: cell-based
Description: It is well known that the succinate molecule is utilized by the cell to produce ATP energy. In the tricarboxylic acid cycle, succinate is oxidized by succinate dehydrogenase to produce ATP. Oxidation occurs in the mitochondria and the mitochondria can utilize both succinate formed in the mitochondria or succinate transported to the mitochondria. Increasing ATP production may enhance cellular repair processes as well as normal metabolic processes. For example, the cell's ability to remove free intracellular Ca^2+ during a toxic insult is related to ATP production. Succinate administration stimulates gluconeogenesis to form glucose 6-phosphate which is used for producing energy anaerobically (ATP formation through glycolysis) and for producing reducing equivalents (NADPH formation through the hexose monophosphate shunt needed for lipid and nucleotide biosynthesis and other biosynthetic reductions and enzymatic reactions, e.g., glutathione reductase). An in vitro experiment was conducted to determine the relationship between the release of succinate from alpha-TS and the cellular ATP level. The experiment was performed by incubating a tocopherol analog in a rat hepatocyte suspension and measuring the ATP level at the beginning and end of the test.
as §2

[6] = tested on: liver; test: CCl4 induced hepatotoxicity in rats (serum AST/ALT); format: in vivo, rat
Procedure: In vivo experiments were performed to determine if alpha-TS administration protects the liver from chemical toxicity. The liver is the target organ for CCl4. CCl4 is a hepatotoxic agent that induces centrilobular liver necrosis through its metabolism to free radicals. Male Sprague-Dawley rats were given an intraperitoneal dose (100 mg/kg) of a tocopherol analog 24 hours prior to a CCl4 challenge (2.9g/kg given by oral garage). Forty eight hours after the challenge, the rats were sacrificed and the levels of aspartate aminotransferase (AST) and alanine aminotransferase (ALT) were measured.
As discussed above, SGOT levels provide a clinical assessment of hepatotoxicity (liver damage).
Succinate analogs were administered to male Sprague-Dawley rats 20 hours prior to a 1 g CCl4 /kg body weight oral challenge and the AST and ALT serum enzyme levels were measured 48 hours after the challenge.
Similar to the experiments were described above, the ionizable congeners were administered to Sprague-Dawley rats by i.p. injection of a 100 mg ionizable congener/kg body weight dose 20 hours prior to oral administration of a 1 g/kg dose of CCl4, and the AST and ALT levels were measured 48 hours after the CCl4 challenge.

[7] = tested on: liver; test: Partial liver ischemia/reperfusion-induced injury in rats; format: in vivo, rat; conditions: dihydrocholesterol sulfate vs dihydrocholesterol plus sodium sulfate
Procedure: 20 hours prior to global occlusion, one group of 10 rats was provided with 64 mg cholesterol/kg body weight and 100 mg tris succinate/kg body weight by i.p. injection, and another group of 10 rats was provided with 100 mg cholesteryl succinate/kg body weight. A control group of rats was only partially occluded for the one hour period. Ninety percent of the rats pretreated with cholesteryl succinate tris salt survived while only 10% of those pretreated with the combination of cholesterol and tris succinate survived. Table 22 of a partial ischemia study where male Sprague-Dawley rats were subjected to occlusion of the blood supply to the left lateral and median lobes of the liver for 60 minutes followed by reperfusion for 24 hours. During this time, the normal blood supply to the other lobes of the liver was maintained. […] Serum was obtained for AST and ALT measurements.
^a Partial liver ischemia was induced in male Sprague Dawley rats

[8] = Tissue distribution of alpha-tocopherol and alpha-tocopherol ester in rats; format: in vivo, rat; conditions: 100 mg/kg ip, 24 h
Procedure: 100 mg/kg body weight of a tocopherol analog was administered to Sprague-Dawley rats using a peanut oil:ethanol vehicle (3:2). Twenty four hours later the rats were sacrificed and the accumulation of the tocopherol analog in the liver was determined.
A similar in vivo experiment to that discussed in conjunction with Table 5 was performed to determine if other tissues accumulate alpha-TS. Male Sprague-Dawley rats were given a 100 mg/kg dose of alpha-TS using a variety of chemical forms and vehicles. A variety of techniques were used to administer the alpha-TS. Twenty four hours later the rats were sacrificed and the tissues were tested for alpha-TS accumulation.

[9] = tested on: rat hepatocytes; test: EMS-induced lipid peroxidation in rat hepatocyte suspensions; format: cell-based; conditions: Rattus norvegicus, Hepatocyte; 25 μM, 50 mM EMS
Procedure: as §1, §2

[10] = 100 mg/kg, single dose 24 h prior, CCl4 […]
[11] = 100 mg/kg ip (dihydrocholesterol 80 + sodium sulfate 30 mg/kg), 48 h after 1 g/kg CCl4 (Table 35)
[12] = 100 mg/kg ip, PEG 400 vehicle, 48 h after 1 g/kg CCl4 (Table 34)

Compound: Cc1c(C)c2c(c(C)c1OP(=O)(O)O)CCC(C)(CCCC(C)CCCC(C)CCCC(C)C)O2 (racemic) [alpha-TP, dl-alpha-tocopheryl phosphate]
- cellular accumulation of alpha-TP ([1]; EMS): 2.68 nmols/10^6 cells
- minimal effective concentration ([2]; Rattus norvegicus, Hepatocyte, read-out: medium concentration with significant protection against EMS toxicity): ≥ 50 µM
- Days Survived After CCl4 Treatment [3, 10]: 3 days
- Cell Death ([4]; 25 μM): 16 ± 3%
- Lipid Peroxidation ([4]; 25 μM): 2.5 ± 0.9 μmoles MDA/10^6 cells
- Cell Death ([4]; 100 μM): 15 ± 3%
- Lipid Peroxidation ([4]; 100 μM): 2.3 ± 0.1 μmoles MDA/10^6 cells
- Cell Death ([4]; 250 μM): 20 ± 3%
- Lipid Peroxidation ([4]; 250 μM): 1.7 ± 0.1 μmoles MDA/10^6 cells
- cytoprotection at 3.5 mM extracellular Ca2+ ([4]; 3.5 mM Ca2+): eliminated
- Rate of ATP Depletion ([5]; 50 μM): 2.0 ± 0.2 nmoles/10^6 cell/hr
- Cellular ATP ([5]; 50 μM, 0 Hr): 19.4 ± 1.6 nmoles/10^6 cells
- Cellular ATP ([5]; 50 μM, 6 Hr): 7.3 ± 0.2 nmoles/10^6 cells

Compound: CC(C)CCC[C@@H](C)[C@H]1CC[C@H]2[C@@H]3CC[C@H]4C[C@@H](OS(=O)(=O)O)CC[C@]4(C)[C@H]3CC[C@]12C [Dihydrocholesterol sulfate, sodium salt]
- ALT [6, 11]: 0.02 ± 0.01 10^3 units/L
- AST [6, 11]: 0.17 ± 0.04 10^3 units/L
- ALT [6, 12]: 0.03 ± 0.03 10^3 units/L
- AST [6, 12]: 0.15 ± 0.07 10^3 units/L
- inhibition in vivo at 100 mg/kg ([6]; Rattus norvegicus, ip, 48 h, read-out: % Hepatoprotection): 100%
- protection against CCl4 hepatotoxicity (in words) ([6]; rats, serum enzyme levels): complete protection against hepatotoxicity
- ALT [7]: 1305±568

Compound: Cc1c(C)c2c(c(C)c1O)CC[C@@](C)(CCC[C@H](C)CCC[C@H](C)CCCC(C)C)O2 [alpha-T, d-alpha-tocopherol, reference compound]
- Hepatocyte Concentration Alpha-T ([1]; 25 μM): 2.1 ± 0.7 nmol/10^6 cells
- Cellular alpha-T ([1]; 25 μM, Table 2): 2.6 nmoles/10^6 cells
- Hepatocyte Concentration Alpha-T ([1]; 50 μM): 6.1 ± 0.7 nmol/10^6 cells
- Hepatocyte Concentration Alpha-T ([1]; 250 μM): 23.7 ± 2.4 nmol/10^6 cells
- Protection From Toxic Injury ([2]; 25 μM): No
- Protection From Toxic Injury ([2]; 50 μM): No
- Protection From Toxic Injury ([2]; 250 μM): No
- inhibition at 25 µM ([2]; Rattus norvegicus, Hepatocyte, 5 h, read-out: Percent Cytoprotection): 8 ± 10%
- inhibition at 25 µM ([2]; Rattus norvegicus, Hepatocyte, read-out: % Protection): 19%
- protection of hepatocytes against EMS ([2]; up to 250 μM): Protection was not afforded
- Survival after CCl4 treatment ([3]; 100 mg/kg ip 24 h prior, […] CCl4 oral): No
- Protection from CCl4 ([3]; 100 mg/kg ip (Table 5)): No
- Days Survived After CCl4 Treatment ([3]; 100 mg/kg ip, 24 h prior, CCl4 2.2 g/kg): 3 days
- Days Survived After CCl4 Treatment ([3]; 100 mg/kg ip, 24 h prior, CCl4 3.8 g/kg): 2 days
- Days Survived After CCl4 Treatment ([3]; 100 mg/kg ip, 24 h prior, CCl4 5.0 g/kg): 2 days
- Days Survived After CCl4 Treatment ([3]; 100 mg/kg ip, 24 h prior, CCl4 […]): 2 days
- Days Survived After CCl4 Treatment [3, 10]: 3 days
- Days Survived after CCl4 ([3]; CCl4 1.7 g/kg): three
- Liver Concentration Alpha-T [8]: 128 ± 10 nmol/g
- inhibition at 25 µM [9]: 9%
- Rate of ATP Depletion ([5]; 25 μM): 1.5 ± 0.2 nmoles/10^6 cell/hr
- Cellular ATP ([5]; 25 μM, 0 Hr): 15.2 ± 1.6 nmoles/10^6 cells
- Cellular ATP ([5]; 25 μM, 6 Hr): 6.3 ± 0.8 nmoles/10^6 cells
